Laboratory results: patent US20150005288A1, “SUBSTITUTED PHENYLIMIDAZOPYRAZOLES AND USE THEREOF” (Bayer Intellectual Property GmbH, priority 2012, published 2015)
pIC50: −log10 of the molar value.

Assays:
[1] = molecular target: T1, intracellular domain of human Tie2 (GST fusion protein) (Homo sapiens, UniProt Q02763); experiment: Tie2 kinase assay (Tie2-TR-FRET); format: biochemical; conditions: ATP concentration 1 mM, in some cases means of several independent determinations
T1 construct: intracellular domain of human Tie2 (amino acids 776-1124); made in house; host or cells: Baculovirus-infected insect cells (Hi5)
T1 sequence (Q02763 776-1124): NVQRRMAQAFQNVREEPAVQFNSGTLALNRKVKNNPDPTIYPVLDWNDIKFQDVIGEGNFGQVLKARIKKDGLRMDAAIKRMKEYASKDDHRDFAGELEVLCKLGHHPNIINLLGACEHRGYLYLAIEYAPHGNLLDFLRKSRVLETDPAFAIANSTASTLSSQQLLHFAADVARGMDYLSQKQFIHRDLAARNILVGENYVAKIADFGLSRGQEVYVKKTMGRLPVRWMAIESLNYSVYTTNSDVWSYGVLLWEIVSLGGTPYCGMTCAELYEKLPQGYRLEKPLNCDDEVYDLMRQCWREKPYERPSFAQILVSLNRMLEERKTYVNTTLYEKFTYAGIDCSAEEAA
Outline: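 GST fusion of human Tie2 intracellular domain (aa 776-1124, Hi5-expressed), ~30 ng/ml, pre-incubated 15 min with compound, then 1 mM ATP and 1 μM biotinylated peptide, 60 min at 22 °C, pH 7. TR-FRET (Eu anti-phosphotyrosine/streptavidin-XL665, 665/620 nm ratio). […] 20 μM–0.073 nM in duplicate; IC50 by 4-parameter fit.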

[2] = molecular target: T2, endogenous Tie2 receptor (Homo sapiens, UniProt Q02763); experiment: Tie2-pTyr-ELISA: autophosphorylation of endogenous Tie2 receptor in HUVEC; format: cell-based; conditions: autophosphorylation elevated by sodium orthovanadate (4 mM), Tie2/phosphotyrosine sandwich ELISA, from 2-7 independent measurements
T2 construct: the endogenous Tie2 receptor; host or cells: HUVEC (human umbilical vein endothelial cells)
T2 sequence (Q02763 23-1124): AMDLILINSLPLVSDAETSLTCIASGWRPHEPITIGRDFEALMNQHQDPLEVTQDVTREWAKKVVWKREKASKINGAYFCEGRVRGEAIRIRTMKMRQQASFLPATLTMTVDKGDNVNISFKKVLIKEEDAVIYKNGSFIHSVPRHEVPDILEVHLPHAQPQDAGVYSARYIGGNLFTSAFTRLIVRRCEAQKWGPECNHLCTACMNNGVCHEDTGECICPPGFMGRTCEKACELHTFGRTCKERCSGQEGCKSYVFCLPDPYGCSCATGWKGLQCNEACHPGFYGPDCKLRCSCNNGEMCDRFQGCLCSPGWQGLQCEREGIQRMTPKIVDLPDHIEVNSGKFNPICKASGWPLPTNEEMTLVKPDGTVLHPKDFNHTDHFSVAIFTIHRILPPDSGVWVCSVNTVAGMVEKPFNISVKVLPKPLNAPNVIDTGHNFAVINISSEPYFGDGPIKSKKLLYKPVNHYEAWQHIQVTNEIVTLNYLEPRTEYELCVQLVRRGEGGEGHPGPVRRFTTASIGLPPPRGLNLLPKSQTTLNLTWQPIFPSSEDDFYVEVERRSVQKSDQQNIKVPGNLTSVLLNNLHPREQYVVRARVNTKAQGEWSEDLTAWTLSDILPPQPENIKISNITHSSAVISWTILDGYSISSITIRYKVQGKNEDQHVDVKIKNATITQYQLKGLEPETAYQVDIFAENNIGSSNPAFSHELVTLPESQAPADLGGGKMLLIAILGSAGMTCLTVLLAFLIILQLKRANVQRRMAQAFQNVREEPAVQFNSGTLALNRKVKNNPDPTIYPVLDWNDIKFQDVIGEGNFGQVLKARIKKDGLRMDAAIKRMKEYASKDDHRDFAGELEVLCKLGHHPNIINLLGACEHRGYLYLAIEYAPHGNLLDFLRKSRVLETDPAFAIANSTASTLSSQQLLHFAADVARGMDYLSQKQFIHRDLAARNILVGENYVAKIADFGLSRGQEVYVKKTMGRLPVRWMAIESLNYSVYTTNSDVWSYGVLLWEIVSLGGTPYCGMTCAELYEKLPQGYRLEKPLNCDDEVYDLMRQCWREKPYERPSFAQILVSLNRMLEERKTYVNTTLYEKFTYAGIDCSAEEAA
Experimental: The cellular activity of the compounds according to the invention as Tie2 kinase inhibitors was determined in human endothelial cells (HUVEC) by measuring the inhibition of the autophosphorylation, elevated by treatment with sodium orthovanadate, of the endogenous Tie2 receptor by means of a Tie2/phosphotyrosine sandwich ELISA.
Human endothelial cells (human umbilical vein endothelial cells, HUVEC) were obtained from Cellsystems (FC-0003), cultured in Vasculife VEGF complete medium (Cellsystems, LL-1020) with 2% foetal calf serum (FCS) at 37° C./5% CO2 and used for Tie2-ELISA measurements up to passage 8.
HUVEC were plated in a culture volume of 100 μl of Vasculife VEGF complete medium at a cell density of 30 000 cells per well in transparent collagen-coated 96-well cell culture plates (Falcon, #353075) and incubated in an incubation cabinet at 37° C./5% CO2 overnight. The test substances dissolved in DMSO were used to prepare in each case one dilution series in Vasculife VEGF low-serum medium [basal medium with LifeFactors (Cellsystems, LM-0002), without FCS, with 0.1% BSA] without sodium orthovanadate and one dilution series in Vasculife VEGF low-serum-medium with 8 mM sodium orthovanadate in the desired concentrations in the range from 10 pM to 10 μM, the final DMSO concentration being 1%. After removal of the complete medium, 100 μl per well of the dilute substances in low-serum medium without sodium orthovanadate were pipetted onto the cells, and the plates were incubated in an incubation cabinet at 37° C./5% CO2 for 10 min. A further 100 μl of the same substance dilution in low-serum medium with 8 mM sodium orthovanadate were then pipetted into the respective well and the cells were incubated in a volume of now 200 μl in the presence of 4 mM sodium orthovanadate at the desired substance concentration in an incubation cabinet at 37° C./5% CO2 for a further 20 min. The cell supernatant of the plates was then removed and the cells were washed once with 250 μl per well of cold PBS which contained 4 mM sodium orthovanadate. 120 μl of Duschl lysis buffer [50 mM HEPES pH 7.2, 150 mM NaCl, 1 mM MgCl2, 10% glycerol, 1.5% Triton X-100, 4 mM sodium orthovanadate, 250 μl S-PIC phosphatase inhibitor cocktail 2 (Sigma, P5726) and 1 tablet of Complete proteinase inhibitor mixture (Roche, #1836145) per 10 ml] were then added to the cells in each well. The plates were shaken briefly and then incubated on ice for 20 min, and the lysates in the cell culture plates were then frozen at −80° C. for at least 30 min.
For measuring the autophosphorylation of the endogenous Tie2 receptor in the cell lysates prepared, a self-prepared anti-Tie2 antibody directed against the N-terminus of the Tie-2 receptor (1.09 mg/ml) and an HRP-coupled anti-phosphotyrosine antibody (Sigma, A4595, clone pY-20) were used. White 96-well ELISA plates (Lumitrac600, Greiner, #655074) were incubated with 100 μl per well of a 1:1000 dilution of the anti-Tie2 antibody in coating buffer [15 mM Na2CO3, 35 mM NaHCO3, pH 9.6] with shaking at 4° C. overnight. The coated ELISA plates were washed three times with 250 μl PBST buffer [0.1% Tween-20 in PBS], the wells were blocked with 250 μl 3% BSA in PBST buffer with shaking at RT for 1-6 h and washed three more times with 250 μl PBST buffer. From the cell lysate plates thawed in the fridge, in each case 100 μl of lysate were transferred into the coated wells of the ELISA plates, and the plates were incubated with shaking at 4° C. overnight. The plates were washed three times with in each case 250 μl of PBST buffer, and 100 μl of a 1:5000 dilution of the anti-phosphotyrosine HRP antibody in 3% Prionex (Calbiochem, #529600) in PBST were then pipetted into each well and the plates were incubated with shaking and protected from light at 4° C. overnight. […]

| SMILES | pIC50 [1] | pIC50 [2] |
| --- | --- | --- |
| Cc1ccc(NC(=O)c2cc(N3CCN(C)CC3)cc(S(F)(F)(F)(F)F)c2)cc1-n1ccn2nc(-c3cn[nH]c3)cc12 [Example 2, 3-(4-Methylpiperazin-1-yl)-N-{4-methyl-3-[6-(1H-pyrazol-4-yl)-1H-imidazo[1,2-b]pyrazol-1-yl]-phenyl}-5-(pentafluoro-λ^6-sulphanyl)benzamide] | 8.22 | 8.12 |
| Cc1ccc(NC(=O)c2cc(N3CCOCC3)cc(S(F)(F)(F)(F)F)c2)cc1-n1ccn2nc(-c3cn[nH]c3)cc12 [Example 3, N-{4-Methyl-3-[6-(1H-pyrazol-4-yl)-1H-imidazo[1,2-b]pyrazol-1-yl]phenyl}-3-(morpholin-4-yl)-5-(pentafluoro-λ^6-sulphanyl)benzamide] | 8.92 | 8.47 |
| Cc1ccc(NC(=O)c2cc(C(C)(C)O)cc(S(F)(F)(F)(F)F)c2)cc1-n1ccn2nc(-c3cn[nH]c3)cc12 [Example 4, 3-(2-Hydroxypropan-2-yl)-N-{4-methyl-3-[6-(1H-pyrazol-4-yl)-1H-imidazo[1,2-b]pyrazol-1-yl]-phenyl}-5-(pentafluoro-λ^6-sulphanyl)benzamide] | 9.22 | 8.33 |
| Cc1ccc(NC(=O)c2cc(-n3ccnc3C)cc(C(F)(F)F)c2)cc1-n1ccn2nc(-c3cn[nH]c3)cc12 [Example 6, 3-(2-Methyl-1H-imidazol-1-yl)-N-{4-methyl-3-[6-(1H-pyrazol-4-yl)-1H-imidazo[1,2-b]pyrazol-1-yl]phenyl}-5-(trifluoromethyl)benzamide] | 8.30 | 7.77 |
| Cc1ccc(NC(=O)c2cc(C#N)cc(S(F)(F)(F)(F)F)c2)cc1-n1cc(C)n2nc(-c3cn[nH]c3)cc12 [Example 12, 3-Cyano-N-{4-methyl-3-[3-methyl-6-(1H-pyrazol-4-yl)-1H-imidazo[1,2-b]pyrazol-1-yl]phenyl}-5-(pentafluoro-λ^6-sulphanyl)benzamide] | 9.15 | 8.33 |
| Cc1ccc(NC(=O)c2cc(-n3ccnc3C)cc(S(F)(F)(F)(F)F)c2)cc1-n1ccn2nc(-c3cccnc3)cc12 [Example 16, 3-(2-Methyl-1H-imidazol-1-yl)-N-{4-methyl-3-[6-(pyridin-3-yl)-1H-imidazo[1,2-b]pyrazol-1-yl]-phenyl}-5-(pentafluoro-λ^6-sulphanyl)benzamide] | 9.15 | 8.49 |
| Cc1ccc(NC(=O)c2cc(N3CCN(C)CC3)cc(S(F)(F)(F)(F)F)c2)cc1-n1ccn2nc(-c3cccnc3)cc12 [Example 18, 3-(4-Methylpiperazin-1-yl)-N-{4-methyl-3-[6-(pyridin-3-yl)-1H-imidazo[1,2-b]pyrazol-1-yl]-phenyl}-5-(pentafluoro-λ^6-sulphanyl)benzamide] | 9.15 | 7.96 |
| Cc1ccc(NC(=O)c2cc(S(C)(=O)=O)cc(S(F)(F)(F)(F)F)c2)cc1-n1ccn2nc(-c3cccnc3)cc12 [Example 26, N-{4-Methyl-3-[6-(pyridin-3-yl)-1H-imidazo[1,2-b]pyrazol-1-yl]phenyl}-3-(methylsulphonyl)-5-(pentafluoro-λ^6-sulphanyl)benzamide] | 9.10 | 8.52 |
| Cc1ccc(NC(=O)c2cc(C#N)cc(S(F)(F)(F)(F)F)c2)cc1-n1ccn2nc(-c3cccnc3)cc12 [Example 28, 3-Cyano-N-{4-methyl-3-[6-(pyridin-3-yl)-1H-imidazo[1,2-b]pyrazol-1-yl]phenyl}-5-(pentafluoro-λ^6-sulphanyl)benzamide] | 8.68 | 8.44 |
| Cc1ccc(NC(=O)c2cc(C(C)(C)O)cc(S(F)(F)(F)(F)F)c2)cc1-n1ccn2nc(-c3cccnc3)cc12 [Example 32, 3-(2-Hydroxypropan-2-yl)-N-{4-methyl-3 [6-(pyridin-3-yl)-1H-imidazo[1,2-b]pyrazol-1-yl]-phenyl}-5-(pentafluoro-λ^6-sulphanyl)benzamide] | 9.40 | 8.68 |
| Cc1ccc(NC(=O)c2cc(-n3ccnc3C)cc(C(F)(F)F)c2)cc1-n1ccn2nc(-c3cccnc3)cc12 [Example 40, 3-(2-Methyl-1H-imidazol-1-yl)-N-{4-methyl-3-[6-(pyridin-3-yl)-1H-imidazo[1,2-b]pyrazol-1-yl]-phenyl}-5-(trifluoromethyl)benzamide] | 9.30 | 8.64 |
| Cc1ccc(NC(=O)c2cc(N3CCN(C)CC3)cc(C(C)(C)C)c2)cc1-n1ccn2nc(-c3cccnc3)cc12 [Example 48, 3-tert-Butyl-5-(4-methylpiperazin-1-yl)-N-{4-methyl-3-[6-(pyridin-3-yl)-1H-imidazo[1,2-b]-pyrazol-1-yl]phenyl}benzamide] | 9.52 | 8.19 |
| Cc1ccc(NC(=O)c2cc(CN3CCCC3)cc(C(C)(C)C)c2)cc1-n1ccn2nc(-c3cccnc3)cc12 [Example 51, 3-tert-Butyl-N-{4-methyl-3-[6-(pyridin-3-yl)-1H-imidazo[1,2-b]pyrazol-1-yl]phenyl}-5-(pyrrolidin-1-ylmethyl)benzamide] | 9.15 | 8.06 |
| CNc1cc(C(=O)Nc2ccc(C)c(-n3ccn4nc(-c5cccnc5)cc34)c2)cc(C(C)(C)C)n1 [Example 66, 2-tert-Butyl-6-(methylamino)-N-{4-methyl-3-[6-(pyridin-3-yl)-1H-imidazo[1,2-b]pyrazol-1-yl]-phenyl}isonicotinamide] | 8.10 | 7.34 |
| Cc1cc(C)c(-n2ccn3nc(-c4cccnc4)cc23)cc1NC(=O)c1cccc(S(F)(F)(F)(F)F)c1 [Example 73, N-{2,4-Dimethyl-5-[6-(pyridin-3-yl)-1H-imidazo[1,2-b]pyrazol-1-yl]phenyl}-3-(pentafluoro-λ^6-sulphanyl)benzamide] | 9.52 | 9.10 |
| Cc1cc(C)c(-n2ccn3nc(-c4cccnc4)cc23)cc1NC(=O)c1cc(C#N)cc(S(F)(F)(F)(F)F)c1 [Example 74, 3-Cyano-N-{2,4-dimethyl-5-[6-(pyridin-3-yl)-1H-imidazo[1,2-b]pyrazol-1-yl]phenyl}-5-(pentafluoro-λ^6-sulphanyl)benzamide] | 9.30 | 9.22 |
| Cc1cc(F)c(NC(=O)c2cc(C#N)cc(S(F)(F)(F)(F)F)c2)cc1-n1ccn2nc(-c3cccnc3)cc12 [Example 75, 3-Cyano-N-{2-fluoro-4-methyl-5-[6-(pyridin-3-yl)-1H-imidazo[1,2-b]pyrazol-1-yl]phenyl}-5-(pentafluoro-λ^6-sulphanyl)benzamide] | 9.30 | 8.77 |
| Cc1ccc(-n2ccn3nc(-c4cccnc4)cc23)cc1NC(=O)c1cc(C#N)cc(S(F)(F)(F)(F)F)c1 [Example 77] | 7.89 | 8.06 |
| Cc1ccc(NC(=O)c2cc(C(C)(C)O)cc(S(F)(F)(F)(F)F)c2)cc1-n1ccn2nc(-c3cncs3)cc12 [Example 178, 3-(2-Hydroxypropan-2-yl)-N-{4-methyl-3-[6-(1,3-thiazol-5-yl)-1H-imidazo[1,2-b]pyrazol-1-yl]-phenyl}-5-(pentafluoro-λ^6-sulphanyl)benzamide] | 9.10 | – |
